# Experimental data from patent US12616665B2, “Neutrophil-to-lymphocyte ratio decreasing agent” (THERABIOPHARMA INC., priority 2020, dated 2026).
# Tested on: neutrophil-to-lymphocyte ratio in blood
# Test: Neutrophil-to-lymphocyte ratio in venous blood after four weeks of curcumin-containing capsule intake
# Type: in vivo, human
# Procedure: Each of 20 men and women of 60 years old or older was caused to take a curcumin-containing capsule (containing 90 mg of curcumin per capsule) twice a day in the morning and the evening for four weeks (daily dose 180 mg). Venous blood was collected at start and end of administration, and a neutrophil-to-lymphocyte ratio was measured.
# As a result, in a non-parametric test (Wilcoxon code rank test), the neutrophil-to-lymphocyte ratio at start of administration was 1.7 (1.3, 2.1), whereas the neutrophil-to-lymphocyte ratio at end of administration was 1.4 (1.2, 1.7).
structure (smiles),measurement,setting,value
COc1cc(/C=C/C(=O)/C=C(O)/C=C/c2ccc(O)c(OC)c2)ccc1O [curcumin],neutrophil-to-lymphocyte ratio at end of administration,"after four weeks, 90 mg curcumin capsule twice a day (daily dose 180 mg), oral, 20 men and women of 60 years old or older, venous blood","1.4 (1.2, 1.7)"
same,neutrophil-to-lymphocyte ratio at start of administration,"baseline, 20 men and women of 60 years old or older, venous blood, spread in brackets not defined","1.7 (1.3, 2.1)"
same,"change of neutrophil-to-lymphocyte ratio, start vs end of administration","four weeks, daily dose 180 mg, non-parametric test (Wilcoxon code rank test)",significantly decreased
